Values quoted from earlier work, collected in paper PMC11704089, “A Novel Cell-Penetrating Peptide–Vascular Endothelial Growth Factor Small Interfering Ribonucleic Acid Complex That Mediates the Inhibition of Angiogenesis by Human Umbilical Vein Endothelial Cells and in an Ex Vivo Mouse Aorta Ring Model” (Biomaterials Research, 2025).

System: various cell lines

In the case of RNQRKTVRCFRCRQAGHWISDCRLKSK [Ara27], the Cytotoxicity is listed as “without evidence of cytotoxicity”, the “Intracellular uptake compared to Tat-protein transduction domain and membrane translocating sequence” value is listed as “significant improvement in intracellular uptake” and the Cellular internalization (low concentrations and short treatment conditions, various cell lines) is listed as “efficiently internalized”.
